Source: ChEMBL document CHEMBL1201862, “PubChem BioAssay data set” (2004)
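Method: 48-hour compound exposure of cells in 96-well plates, five concentrations, linear interpolation of endpoints. The concentration for 50% growth inhibition is given as GI50.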 Activity calls are given as the source filed them. Rule as the data show it: active = GI50 up to about 1.1 µM and inactive = higher.

Legend:
Test in all cases: NCI anticancer screen, dose series, 48 h
[1] = tested on: OVCAR-5
[2] = tested on: HOP-62
[3] = tested on: SNB-75
[4] = tested on: MDA-MB-435
[5] = tested on: NCI-H23
[6] = tested on: MOLT-4
[7] = tested on: NCI-H460
[8] = tested on: KM12
[9] = tested on: SF-295
[10] = tested on: SW-620
[11] = tested on: OVCAR-3
[12] = tested on: NCI-H226
[13] = tested on: EKVX
[14] = tested on: PC-3
[15] = tested on: OVCAR-4
[16] = tested on: UACC-257
[17] = tested on: SK-MEL-5
[18] = tested on: TK-10
[19] = tested on: NCI-H522
[20] = tested on: RXF 393

Row | SMILES | GI50 [1] | GI50 [2] | GI50 [3] | GI50 [4] | GI50 [5] | GI50 [6] | GI50 [7] | GI50 [8] | GI50 [9] | GI50 [10] | GI50 [11] | GI50 [12] | GI50 [13] | GI50 [14] | GI50 [15] | GI50 [16] | GI50 [17] | GI50 [18] | GI50 [19] | GI50 [20]
1 | COc1cc2c(cc1OC)C1c3ccccc3CCCN1CC2 (stereo unspecified) | > 100 µM (inactive) | > 100 µM (inactive) | > 100 µM (inactive) | > 100 µM (inactive) | > 100 µM (inactive) | > 100 µM (inactive) | > 10 µM (inactive) | > 100 µM (inactive) | 47.6 µM (inactive) | > 100 µM (inactive) | > 100 µM (inactive) | > 100 µM (inactive) | > 100 µM (inactive) | > 100 µM (inactive) | > 100 µM (inactive) | > 100 µM (inactive) | > 100 µM (inactive) | > 100 µM (inactive) | > 100 µM (inactive) | –
2 | CCCCCCCCCCCCNC1(C)CNCCCNCCNCCCNC1 | 2.23 µM (inactive) | 1.98 µM (inactive) | 1.73 µM (inactive) | – | 1.71 µM (inactive) | 1.43 µM (inactive) | 1.33 µM (inactive) | 1.53 µM (inactive) | 1.51 µM (inactive) | 1.79 µM (inactive) | 1.82 µM (inactive) | 1.51 µM (inactive) | 3.56 µM (inactive) | – | 2.07 µM (inactive) | 1.76 µM (inactive) | 1.68 µM (inactive) | 1.7 µM (inactive) | 1.82 µM (inactive) | 1.56 µM (inactive)
3 | Cc1ccc2[nH]c3c(C)c4c(c(C)c3c2c1)CN(C)C=C4 | 3.1 µM (inactive) | 0.743 µM (active) | 0.75 µM (active) | – | 0.735 µM (active) | 1.91 µM (inactive) | 2.74 µM (inactive) | 0.54 µM (active) | 0.423 µM (active) | 0.281 µM (active) | 2.75 µM (inactive) | 0.353 µM (active) | 1.17 µM (inactive) | – | 1.66 µM (inactive) | 2.53 µM (inactive) | 1.38 µM (inactive) | 9.29 µM (inactive) | 0.152 µM (active) | 1.53 µM (inactive)
4 | CC(=O)Nc1ccc(-c2nnc(SCC(=O)Nc3ccc(Cl)cc3Cl)o2)cc1 | > 100 µM (inactive) | 70 µM (inactive) | 31.3 µM (inactive) | – | 26.2 µM (inactive) | 40.8 µM (inactive) | 32.9 µM (inactive) | 65.9 µM (inactive) | 57.8 µM (inactive) | 32.4 µM (inactive) | 18.6 µM (inactive) | 29.2 µM (inactive) | – | – | 37.4 µM (inactive) | 44.2 µM (inactive) | 19.5 µM (inactive) | 96.8 µM (inactive) | 20.7 µM (inactive) | 33.7 µM (inactive)
5 | O=C(Cc1ccccc1)NN1C(=O)/C(=C\c2cccc([N+](=O)[O-])c2)S/C1=N\c1ccccc1 | > 100 µM (inactive) | > 100 µM (inactive) | > 100 µM (inactive) | > 100 µM (inactive) | > 100 µM (inactive) | 42.5 µM (inactive) | > 100 µM (inactive) | > 100 µM (inactive) | > 100 µM (inactive) | > 100 µM (inactive) | > 100 µM (inactive) | > 100 µM (inactive) | > 100 µM (inactive) | – | > 100 µM (inactive) | > 100 µM (inactive) | > 100 µM (inactive) | > 100 µM (inactive) | – | > 100 µM (inactive)
6 | COC(=O)c1ccc(C(=O)NC(Cc2ccc(Oc3cc(CC(NC(=O)c4ccccc4C(=O)OC)C(=O)OC)ccc3OC)cc2)C(=O)OC)cc1 (stereo unspecified) | > 100 µM (inactive) | 36.3 µM (inactive) | 42.6 µM (inactive) | > 100 µM (inactive) | > 100 µM (inactive) | > 100 µM (inactive) | > 100 µM (inactive) | > 100 µM (inactive) | 43.9 µM (inactive) | > 100 µM (inactive) | > 100 µM (inactive) | > 100 µM (inactive) | > 100 µM (inactive) | > 100 µM (inactive) | > 100 µM (inactive) | > 100 µM (inactive) | – | > 100 µM (inactive) | – | –
7 | O=C(O)CCc1ccc2c(c1)C(=O)CC2 | > 100 µM (inactive) | > 100 µM (inactive) | – | > 100 µM (inactive) | > 100 µM (inactive) | > 100 µM (inactive) | > 100 µM (inactive) | > 100 µM (inactive) | > 100 µM (inactive) | > 100 µM (inactive) | > 100 µM (inactive) | > 100 µM (inactive) | > 100 µM (inactive) | – | > 100 µM (inactive) | > 100 µM (inactive) | > 100 µM (inactive) | > 100 µM (inactive) | > 100 µM (inactive) | > 100 µM (inactive)
8 | O=c1[nH]nc2c3n[nH]c(=O)n3c3ccccc3n12 | > 100 µM (inactive) | > 100 µM (inactive) | 57.5 µM (inactive) | – | > 100 µM (inactive) | > 100 µM (inactive) | > 100 µM (inactive) | > 100 µM (inactive) | > 100 µM (inactive) | > 100 µM (inactive) | > 100 µM (inactive) | 50.1 µM (inactive) | 93.8 µM (inactive) | – | > 100 µM (inactive) | > 100 µM (inactive) | > 100 µM (inactive) | > 100 µM (inactive) | 66.1 µM (inactive) | > 100 µM (inactive)
9 | CCOC(=O)Cn1c(=O)c2nc(SC)sc2n(-c2ccccc2)c1=O | > 100 µM (inactive) | > 100 µM (inactive) | > 100 µM (inactive) | – | > 100 µM (inactive) | > 100 µM (inactive) | > 100 µM (inactive) | > 100 µM (inactive) | – | > 100 µM (inactive) | – | > 100 µM (inactive) | > 100 µM (inactive) | > 100 µM (inactive) | – | > 100 µM (inactive) | > 100 µM (inactive) | > 100 µM (inactive) | – | > 100 µM (inactive)
10 | OC12CC/C(=N/OCc3ccccc3)CC1c1ccccc12 (stereo unspecified) | > 100 µM (inactive) | > 100 µM (inactive) | 39.7 µM (inactive) | – | > 100 µM (inactive) | > 100 µM (inactive) | > 100 µM (inactive) | > 100 µM (inactive) | > 100 µM (inactive) | – | > 100 µM (inactive) | > 100 µM (inactive) | > 100 µM (inactive) | – | > 100 µM (inactive) | > 100 µM (inactive) | > 100 µM (inactive) | > 100 µM (inactive) | > 100 µM (inactive) | > 100 µM (inactive)
11 | O=C1NCCS(=O)(=O)N[C@@H](CC2=CC=CCC2)C(=O)N2CCCC12 (stereo partly specified) | > 100 µM (inactive) | > 100 µM (inactive) | > 100 µM (inactive) | – | > 100 µM (inactive) | > 100 µM (inactive) | > 100 µM (inactive) | > 100 µM (inactive) | > 100 µM (inactive) | > 100 µM (inactive) | > 100 µM (inactive) | > 100 µM (inactive) | > 100 µM (inactive) | – | > 100 µM (inactive) | > 100 µM (inactive) | > 100 µM (inactive) | > 100 µM (inactive) | > 100 µM (inactive) | > 100 µM (inactive)
12 | CC#CC1C(OC(=O)c2ccccc2)CCCC1(CI)N=[N+]=[N-] (stereo unspecified) | > 100 µM (inactive) | 94 µM (inactive) | > 100 µM (inactive) | – | 28.3 µM (inactive) | 13.6 µM (inactive) | 60.7 µM (inactive) | 89.7 µM (inactive) | 87.5 µM (inactive) | > 100 µM (inactive) | > 100 µM (inactive) | 84.3 µM (inactive) | 55.1 µM (inactive) | – | 60.1 µM (inactive) | 38.2 µM (inactive) | 19.5 µM (inactive) | > 100 µM (inactive) | 22.4 µM (inactive) | 52 µM (inactive)
13 | COC(OC)c1cc2c(cc1C(=O)[C@@]13CCC[C@@H]1NC(=O)O3)OCO2 | > 100 µM (inactive) | > 100 µM (inactive) | 49 µM (inactive) | – | 78.5 µM (inactive) | > 100 µM (inactive) | > 100 µM (inactive) | > 100 µM (inactive) | > 100 µM (inactive) | > 100 µM (inactive) | > 100 µM (inactive) | > 100 µM (inactive) | > 100 µM (inactive) | – | > 100 µM (inactive) | > 100 µM (inactive) | 41.2 µM (inactive) | > 100 µM (inactive) | > 100 µM (inactive) | 52.2 µM (inactive)
14 | CC1(C)COC2(OC1)C1=NS(=O)(=O)CC13CCC2C3(C)C (stereo unspecified) | > 100 µM (inactive) | > 100 µM (inactive) | > 100 µM (inactive) | – | > 100 µM (inactive) | > 100 µM (inactive) | > 100 µM (inactive) | > 100 µM (inactive) | > 100 µM (inactive) | > 100 µM (inactive) | > 100 µM (inactive) | > 100 µM (inactive) | > 100 µM (inactive) | – | > 100 µM (inactive) | > 100 µM (inactive) | > 100 µM (inactive) | > 100 µM (inactive) | > 100 µM (inactive) | > 100 µM (inactive)
15 | Cc1ccc(S(=O)(=O)OC2C3OC(C)(C)OC3OC2C(c2cc(O)c3c(c2O)C(=O)c2ccccc2C3=O)c2cc(O)c3c(c2O)C(=O)c2ccccc2C3=O)cc1 (stereo unspecified) | > 10 µM (inactive) | > 10 µM (inactive) | > 10 µM (inactive) | > 10 µM (inactive) | > 10 µM (inactive) | > 10 µM (inactive) | > 10 µM (inactive) | > 10 µM (inactive) | > 10 µM (inactive) | > 10 µM (inactive) | > 10 µM (inactive) | > 10 µM (inactive) | > 10 µM (inactive) | > 10 µM (inactive) | > 10 µM (inactive) | > 10 µM (inactive) | > 10 µM (inactive) | > 10 µM (inactive) | > 10 µM (inactive) | –
